Data as given in patent US20230019491A1, “PYRIMIDINE TBK/IKKe INHIBITOR COMPOUNDS AND USES THEREOF” (Merck Patent GmbH, priority 2017, published 2023).
pIC50: −log10 of the molar value. Structures can show the parent of a compound that is named as a salt.

Assays:
TBK1 = target: T1, TBK1 (Homo sapiens, UniProt Q9UHD2); experiment: TBK biochemical assay; details: 10 point 1:4 dose response, 30 uM top concentration, 90 min at 25° C., LabChip EZ Reader II; read-out: TBK1_IC50
T1 sequence (Q9UHD2 1-729): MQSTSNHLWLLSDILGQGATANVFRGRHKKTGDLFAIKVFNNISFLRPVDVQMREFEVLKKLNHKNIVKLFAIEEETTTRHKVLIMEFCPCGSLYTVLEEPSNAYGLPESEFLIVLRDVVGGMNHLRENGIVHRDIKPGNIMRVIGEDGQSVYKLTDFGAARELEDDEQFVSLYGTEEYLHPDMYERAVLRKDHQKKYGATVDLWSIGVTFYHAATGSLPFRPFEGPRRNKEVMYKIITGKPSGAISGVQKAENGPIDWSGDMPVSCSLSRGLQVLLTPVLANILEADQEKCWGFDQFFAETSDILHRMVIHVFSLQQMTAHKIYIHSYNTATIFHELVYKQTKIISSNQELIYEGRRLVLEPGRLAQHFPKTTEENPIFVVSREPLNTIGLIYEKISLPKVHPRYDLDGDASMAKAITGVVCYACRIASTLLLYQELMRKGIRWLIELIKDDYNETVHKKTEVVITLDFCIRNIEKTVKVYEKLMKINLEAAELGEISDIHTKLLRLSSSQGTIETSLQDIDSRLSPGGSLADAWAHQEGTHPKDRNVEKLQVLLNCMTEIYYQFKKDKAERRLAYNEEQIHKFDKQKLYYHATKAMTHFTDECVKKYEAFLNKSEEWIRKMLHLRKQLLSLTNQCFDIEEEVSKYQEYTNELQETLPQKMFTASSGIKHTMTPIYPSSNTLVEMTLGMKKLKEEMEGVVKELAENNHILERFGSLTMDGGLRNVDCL
Method in brief: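 Substrate and product were separated and quantified by microfluidic mobility-shift read (LabChip). 10 uM staurosporine served as the full-inhibition control, and the reference compound was tested from 1 uM final.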

IKKε = target: T2, IKKε (Homo sapiens, UniProt Q14164); experiment: IKKε biochemical assay; details: 10 point 1:4 dose response, 30 uM top concentration, 90 min at 25° C., LabChip EZ Reader II; read-out: IKKε_IC50
T2 sequence (Q14164 1-716): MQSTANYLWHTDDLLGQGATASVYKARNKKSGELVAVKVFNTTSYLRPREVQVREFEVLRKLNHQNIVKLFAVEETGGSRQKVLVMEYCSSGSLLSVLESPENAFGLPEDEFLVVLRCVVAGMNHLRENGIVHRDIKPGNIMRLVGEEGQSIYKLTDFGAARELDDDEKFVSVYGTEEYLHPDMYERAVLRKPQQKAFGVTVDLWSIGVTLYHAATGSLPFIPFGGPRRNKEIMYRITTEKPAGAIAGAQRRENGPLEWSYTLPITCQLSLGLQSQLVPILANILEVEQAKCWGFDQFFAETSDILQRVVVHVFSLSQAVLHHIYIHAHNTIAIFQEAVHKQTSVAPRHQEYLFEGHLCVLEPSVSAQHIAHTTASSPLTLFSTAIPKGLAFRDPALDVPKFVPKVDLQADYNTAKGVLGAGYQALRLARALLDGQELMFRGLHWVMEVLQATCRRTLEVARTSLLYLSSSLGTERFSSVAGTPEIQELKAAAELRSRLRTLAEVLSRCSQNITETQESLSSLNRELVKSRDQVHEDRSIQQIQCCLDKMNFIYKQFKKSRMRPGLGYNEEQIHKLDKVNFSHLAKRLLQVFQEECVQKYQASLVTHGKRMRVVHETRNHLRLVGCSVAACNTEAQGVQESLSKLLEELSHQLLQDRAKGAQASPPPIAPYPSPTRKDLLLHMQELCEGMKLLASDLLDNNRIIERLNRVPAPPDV
Method in brief: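 Compounds in 1% DMSO final were incubated with IKKε enzyme and substrate at 25° C. for 90 min, then stopped. Substrate and product peaks were resolved by LabChip EZ Reader II mobility-shift read-out. Staurosporine at 10 uM final served as the full-inhibition control.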

| SMILES | pIC50 (TBK1) | pIC50 (IKKε) |
| --- | --- | --- |
| C[C@@H](O)C(=O)N1CCC(Oc2ccc(-c3ccnc(Nc4ccc(C5CCN(C6COC6)C5)cc4)n3)cc2C#N)C(F)(F)C1 (stereo partly drawn) [Example 214, 2-([3,3-difluoro-1-[(2R)-2-hydroxypropanoyl]piperidin-4-yl]oxy)-5-[2-([4-[1-(oxetan-3-yl)pyrrolidin-3-yl]phenyl]amino)pyrimidin-4-yl]benzonitrile] | > 7.00 | > 7.00 |
| Cc1nc(C(=O)N2CCC(Oc3ccc(-c4ccnc(Nc5ccc(N6CCN(C)CC6)cc5)n4)cc3C#N)CC2)n[nH]1 [Example 203, 2-[[1-(5-methyl-1H-1,2,4-triazole-3-carbonyl)piperidin-4-yl]oxy]-5-(2-[[4-(4-methylpiperazin-1-yl)phenyl]amino]pyrimidin-4-yl)benzonitrile] | > 7.00 | > 7.00 |
| COc1nc(Nc2nccc(-c3ccc(OC4CCOCC4)c(C#N)c3)n2)ccc1C(=O)NC1CCN(C)CC1 [Example 14, 6-([4-[3-cyano-4-(oxan-4-yloxy)phenyl]pyrimidin-2-yl]amino)-2-methoxy-N-(1-methylpiperidin-4-yl)pyridine-3-carboxamide] | > 7.00 | > 7.00 |
| COc1nc(Nc2nccc(-c3ccc(OC4CCOCC4)c(C#N)c3)n2)ccc1N1CCN(C)CC1 [Example 33, 5-(2-(6-methoxy-5-(4-methylpiperazin-1-yl)pyridin-2-ylamino)pyrimidin-4-yl)-2-(tetrahydro-2H-pyran-4-yloxy)benzonitrile] | > 7.00 | > 7.00 |
| COc1nc(Nc2nccc(-c3ccc(O[C@H]4CCNC[C@H]4F)c(C#N)c3)n2)ccc1N1CCN(C2COC2)CC1 [Example 198, 2-[[(3R,4S)-3-fluoropiperidin-4-yl]oxy]-5-[2-([6-methoxy-5-[4-(oxetan-3-yl)piperazin-1-yl]pyridin-2-yl]amino)pyrimidin-4-yl]benzonitrile] | > 7.00 | > 7.00 |
| COc1nc(Nc2nccc(-c3ccc(OC4CCN(C)CC4)c(C#N)c3)n2)ccc1C(=O)N(C)C [Example 71, 6-[(4-[3-cyano-4-[(1-methylpiperidin-4-yl)oxy]phenyl]pyrimidin-2-yl)amino]-2-methoxy-N,N-dimethylpyridine-3-carboxamide hydrochloride] | 6.00 to 7.00 | 6.00 to 7.00 |
| COc1nc(Nc2ncc(C)c(-c3ccc(OC4CCN(C(=O)[C@@H](C)O)CC4(F)F)c(C#N)c3)n2)ccc1N1CCN(C2COC2)CC1 (stereo partly drawn) [Example 286, 2-([33-difluoro-1-[(2R)-2-hydroxypropanoyl]piperidin-4-yl]oxy)-5-[2-([6-methoxy-5-[4-(oxetan-3-yl)piperazin-1-yl]pyridin-2-yl]amino)-5-methylpyrimidin-4-yl]benzonitrile] | > 7.00 | 6.00 to 7.00 |
| COc1cc(C(=O)N(C)C)ncc1Nc1nccc(-c2ccc(NC3CCOCC3)c(C#N)c2)n1 [Example 61, 5-[(4-[3-cyano-4-[(oxan-4-yl)amino]phenyl]pyrimidin-2-yl)amino]-4-methoxy-N,N-dimethylpyridine-2-carboxamide] | 6.00 to 7.00 | 6.00 to 7.00 |
| COc1nccc(Nc2nccc(-c3ccc(OC4CCNCC4(F)F)c(C#N)c3)n2)n1 (stereo not shown) [Example 232, 2-(3,3-Difluoro-piperidin-4-yloxy)-5-[2-(2-methoxy-pyrimidin-4-ylamino)-pyrimidin-4-yl]-benzonitrile] | 6.00 to 7.00 | 6.00 to 7.00 |
| COc1nc(Nc2nccc(-c3ccc(OC4CCOCC4)c(C#N)c3)n2)ccc1C(=O)N1CC2CCC(C1)O2 [Example 10, 5-(2-[[6-methoxy-5-([8-oxa-3-azabicyclo[3.2.1]octan-3-yl]carbonyl)pyridin-2-yl]amino]pyrimidin-4-yl)-2-(oxan-4-yloxy)benzonitrile] | > 7.00 | > 7.00 |
| COCCN1CCN(c2ccc(Nc3nccc(-c4ccc(OC5CCOCC5)c(C#N)c4)n3)nc2OC)CC1 [Example 166] | > 7.00 | > 7.00 |
| COc1nc(Nc2nccc(-c3ccc(OC4CCN(C(=O)[C@@H](O)CO)CC4(F)F)c(C#N)c3)n2)ccc1C1CCN(C2COC2)CC1 (stereo partly drawn) [Example 153, 2-[1-((S)-2,3-Dihydroxy-propionyl)-3,3-difluoro-piperidin-4-yloxy]-5-[2-(2-methoxy-1′-oxetan-3-yl-1′,2′,3′,4′,5′,6′-hexahydro-[3,4′]bipyridinyl-6-ylamino)-pyrimidin-4-yl]-benzonitrile] | > 7.00 | > 7.00 |
| COc1nc(Nc2nccc(-c3ccc(OC4CN(C(=O)[C@H](C)O)C4)c(C#N)c3)n2)ccc1N1CCN(C2COC2)CC1 [Example 175, 2-([1-[(2S)-2-hydroxypropanoyl]azetidin-3-yl]oxy)-5-[2-([6-methoxy-5-[4-(oxetan-3-yl)piperazin-1-yl]pyridin-2-yl]amino)pyrimidin-4-yl]benzonitrile] | 6.00 to 7.00 | 6.00 to 7.00 |
| COc1nc(Nc2nccc(-c3ccc(OC4CCN(C(=O)[C@H](C)O)CC4(F)F)c(C#N)c3)n2)ccc1N1CCN(C2COC2)[C@@H](C)C1 (stereo partly drawn) [Example 127, 2-[3,3-Difluoro-1-((S)-2-hydroxy-propionyl)-piperidin-4-yloxy]-5-{2-[6-methoxy-5-((S)-3-methyl-4-oxetan-3-yl-piperazin-1-yl)-pyridin-2-ylamino]-pyrimidin-4-yl}-benzonitrile] | > 7.00 | > 7.00 |
| Cc1cc(N2CCN(C3COC3)CC2)ccc1Nc1nccc(-c2ccc(OC3CCN(C(=O)[C@H](C)O)CC3(F)F)c(C#N)c2)n1 (stereo partly drawn) [Example 310, 2-([3,3-difluoro-1-[(2S)-2-hydroxypropanoyl]piperidin-4-yl]oxy)-5-[2-([2-methyl-4-[4-(oxetan-3-yl)piperazin-1-yl]phenyl]amino)pyrimidin-4-yl]benzonitrile] | > 7.00 | > 7.00 |
| COc1nc(Nc2ncc(C)c(-c3ccc(OC4CCN(C(=O)[C@H](C)O)CC4(F)F)c(C#N)c3)n2)ccc1N1CCN(C2COC2)CC1 (stereo partly drawn) [Example 283, 2-([33-difluoro-1-[(2S)-2-hydroxypropanoyl]piperidin-4-yl]oxy)-5-[2-([6-methoxy-5-[4-(oxetan-3-yl)piperazin-1-yl]pyridin-2-yl]amino)-5-methylpyrimidin-4-yl]benzonitrile] | > 7.00 | > 7.00 |
| COc1cc(C(=O)N(C)C)cnc1Nc1nccc(-c2ccc(OC3CCOCC3)c(C#N)c2)n1 [Example 58, 6-([4-[3-cyano-4-(oxan-4-yloxy)phenyl]pyrimidin-2-yl]amino)-5-methoxy-N,N-dimethylpyridine-3-carboxamide] | 5.30 to 6.00 | < 5.30 |
| COc1nc(Nc2nccc(-c3ccc(OC4CCNCC4)c(C#N)c3)n2)ccc1C(=O)N(C)C [Example 72, 6-([4-[3-cyano-4-(piperidin-4-yloxy)phenyl]pyrimidin-2-yl]amino)-2-methoxy-N,N-dimethylpyridine-3-carboxamide] | > 7.00 | > 7.00 |
| COc1nc(Nc2nccc(-c3ccc(O[C@H]4CCN(C(=O)CO)C[C@H]4F)c(C#N)c3)n2)ccc1C(=O)N(C)C [Example 75, 6-[[4-(3-cyano-4-[[(3R,4S)-3-fluoro-1-(2-hydroxyacetyl)piperidin-4-yl]oxy]phenyl)pyrimidin-2-yl]amino]-2-methoxy-N,N-dimethylpyridine-3-carboxamide hydrochloride] | > 7.00 | > 7.00 |
| COc1nc(Nc2nccc(-c3ccc(OC4CCNCC4(F)F)c(C#N)c3)n2)ccc1N1CCN(C2COC2)[C@H](C)C1 (stereo partly drawn) [Example 124, 2-(3,3-Difluoro-piperidin-4-yloxy)-5-{2-[6-methoxy-5-((R)-3-methyl-4-oxetan-3-yl-piperazin-1-yl)-pyridin-2-ylamino]-pyrimidin-4-yl}-benzonitrile] | > 7.00 | > 7.00 |
